Key:
murine IDO1 = target: T1, murine IDO1 (Mus musculus, UniProt P28776); experiment: Cellular assay of IDO1 inhibition, L-Kyn production in P1.HTR cells; assay type: cell-based; conditions: 16 h; for FC L-Kyn (fold change of L-Kyn production): 30 µM compound, P1.HTR cells stably transfected with murine IDO1, versus vehicle, mean ± SD
T1 construct: expressed in transfected cells
Method: The functional activity of confirmed IDO1 ligands was estimated in murine mastocytoma cell line (P1.HTR) stably transfected with murine IDO1. Specifically, P1.HTR cells were cultured in presence of each compound at 30 µM concentration.
(§1) Briefly, P1.HTR cells, a highly transfectable clonal variant of mouse mastocytoma P815 [59], were cultured in Iscove’s modified Dulbecco’s medium supplemented with 10% fetal calf serum (FCS), 1 mM glutamine and penicillin/streptomycin at 37 °C in a humidified 7% CO2 incubator. P1.HTR cells were transfected by electroporation with plasmid constructs coding for murine IDO1 (P1.IDO1). A stable transfectant cell line was obtained by puromycin selection.
A cell culture incubated with an equivalent volume of DMSO (the vehicle in which compounds were solubilized) was used as a reference control. After the incubation, supernatants of cell cultures were recovered, and kynurenine concentration was detected by the HPLC method. Every cell assay was conducted in triplicate. Results were expressed as the mean ± standard deviation of the kynurenine fold change (L-Kyn FC), meaning the ratio between kynurenine concentration secreted in the supernatant of the compound-treated versus vehicle-treated cells. The detection of L-Kyn concentrations was performed by using a PerkinElmer, series 200 HPLC instrument. A Kinetex C18 column (250 × 4.6 mm, 5 μm, 100 A; Phenomenex, CA, USA), maintained at the temperature of 25 °C and a pressure of 1800 PSI, was used. […] L-Kyn was detected at 360 nm by an UV detector. The software TURBOCHROM 4 was used for evaluating the concentration of L-Kyn in samples by means of a calibration curve. The detection limit of the analysis was 0.05 μM.

[1] = target: fluorescently labelled rhIDO1 (NT650-IDO1) (Homo sapiens, UniProt P14902); experiment: Single-point MST binding assay at 250 µM; conditions: 250 µM compound, 50 nM labelled rhIDO1; F-norm outside vehicle signal and SD
Sequence of fluorescently labelled rhIDO1 (NT650-IDO1) (P14902 whole entry): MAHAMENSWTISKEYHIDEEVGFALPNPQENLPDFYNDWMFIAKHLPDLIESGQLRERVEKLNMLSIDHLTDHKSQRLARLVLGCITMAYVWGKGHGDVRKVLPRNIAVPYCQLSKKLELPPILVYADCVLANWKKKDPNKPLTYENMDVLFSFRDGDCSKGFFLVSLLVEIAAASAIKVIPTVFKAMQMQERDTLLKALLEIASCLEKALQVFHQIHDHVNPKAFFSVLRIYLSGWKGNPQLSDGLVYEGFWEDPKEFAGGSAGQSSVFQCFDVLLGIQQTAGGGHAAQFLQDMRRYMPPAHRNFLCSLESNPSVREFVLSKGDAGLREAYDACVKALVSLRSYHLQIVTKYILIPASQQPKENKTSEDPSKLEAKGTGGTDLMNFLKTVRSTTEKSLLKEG

[2] = target: recombinant human IDO1 (rhIDO1) (Homo sapiens, UniProt P14902); experiment: Full-point MST binding assay against labelled rhIDO1; conditions: for BEI (binding efficiency index): BEI = pKd/MW (kDa)
Sequence of recombinant human IDO1 (rhIDO1) (P14902 whole entry): as above

[3] = Potentiometric logP determination (Sirius T3); assay type: physicochemical; conditions: for logP: n-octanol/ISA water biphasic system, read-out: explogP
Description: (§2) Confirmed IDO1 ligands were profiled for the calculation and experimental determination of their acidic constant (calcpKa, exppKa) and n-octanol/water partition coefficient (calclogP, explogP). […] Four of these compounds (19–22) were titrated with a potentiometric method to determine the relative exppKa and explogP, using a Sirius T3 instrument. The remaining two compounds (16, 17) were not experimentally analyzed because their calcpKa values were too close to the upper detection limit of the Sirius T3 instrument.
(§3) Acidic constants (pKa) and octanol/water partition coefficients (logP) of confirmed hit compounds were firstly calculated using the pKa and logP plugins of the program Marvin (Marvin v20.11, ChemAxon, Budapest, Hungary).
(§4) The experiments were set up with Sirius T3 control software (Sirius T3 v1.1.3.0, Pion Inc. Ltd., Forest Row, East Sussex, UK), specifying the volume of the stock solution to be used, molecular weight, number of expected pKa and their calculated values (calcpKa), predicted logP (calclogP), and titration mode (from pH = 2 to 12 for basic compounds, and from pH = 12 to 2 for acidic compounds). To avoid issues of poor solubility during the titration in ISA water, the pKa analyses were carried out in triplicate with different ratios of organic cosolvent methanol and water (50%, 40%, and 30% methanol). Considering the modification of water’s dielectric constant in the presence of an organic solvent, the pKa at 0% of co-solvent was obtained through the method of Yasuda–Shedlovsky (YS) extrapolation to zero [58]. The validity of the analysis was assessed with the r^2 of the YS method, and results were considered acceptable with an r^2 ≥ 0.9. Titration results were analyzed with Sirius T3 refine software (Sirius T3 v1.1.3.0, Pion Inc. Ltd., Forest Row, East Sussex, UK). Octanol/water partition coefficient (logP) was measured through a potentiometric titration in a biphasic system, using ISA water and n-octanol. Specifically, Sirius T3 control software uses three evaluation models of experimental logP, whose choice is based on the calculated logP values (calclogP < 1, “Low-logP” method; 1 < calclogP < 3, “Medium-logP” method; calclogP > 3, “High-logP” method). Accordingly, the “Medium-logP” method was selected to evaluate the experimental logP (explogP) of the selected compounds. The titration was performed in triplicate and the raw data were elaborated using Sirius T3 refine software. The quality of the analysis was evaluated by comparing the titration curve of each analysis by calculating a root mean square deviation (RMSD). All the analysis yielded RMSD values < 0.5.

[4] = Potentiometric pKa determination (Sirius T3); assay type: physicochemical; conditions: for exppKa: Sirius T3, Yasuda-Shedlovsky extrapolation to 0% methanol, first or only value
Description: as §2, §3, §4

P1.HTR cells = experiment: Cytotoxicity seen in the P1.HTR cellular assay; assay type: cell-based, mouse; conditions: 30 µM, data not shown
Method: Accordingly, no correlation could be found between cellular activities and enzymatic binding data of tested compounds.
as §1, with “A cellular assay was performed to assess the functional activity of confirmed hit compounds against IDO1. Briefly,” for “Briefly,”, “selection. Cells at the concentration of 0.25 × 10^6 cell/mL were incubated with 30 µM of compounds for 16 h, using a culture medium containing L-Trp at a concentration of 78.4 µM and a HEPES buffer at pH 7.2.” for “selection.”

T1 sequence (P28776 whole entry): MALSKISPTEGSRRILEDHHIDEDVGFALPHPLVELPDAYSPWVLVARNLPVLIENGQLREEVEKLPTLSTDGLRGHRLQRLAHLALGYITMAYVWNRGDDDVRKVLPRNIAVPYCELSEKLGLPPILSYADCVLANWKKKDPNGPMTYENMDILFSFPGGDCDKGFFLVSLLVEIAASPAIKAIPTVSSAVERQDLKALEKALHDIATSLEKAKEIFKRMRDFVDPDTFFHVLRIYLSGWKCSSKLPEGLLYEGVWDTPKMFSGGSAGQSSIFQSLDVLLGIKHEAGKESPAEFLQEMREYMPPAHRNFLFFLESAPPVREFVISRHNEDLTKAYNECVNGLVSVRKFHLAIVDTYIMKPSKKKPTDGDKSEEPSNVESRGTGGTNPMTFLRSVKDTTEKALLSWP

FC L-Kyn (fold change of L-Kyn production) (murine IDO1)	Single-point MST classification [1]	Kd [2]	BEI (binding efficiency index) [2]	logP [3]	exppKa [4]	exppKa (second value) ([4]; Sirius T3, value printed after the slash)	explogP ([3]; n-octanol/water)	Inhibition in P1.HTR cells (in words) (murine IDO1; 30 µM)	Structure (SMILES)	Cytotoxicity (P1.HTR cells)
0.56 ± 0.05	binders	73.3 ± 16.2 µM	14	2	3.9	6.3			O=C(NCc1ccccn1)c1nn[nH]c1-c1ccc(F)cc1 [VIS597 (21)]	
0.55 ± 0.02	binders	59.3 ± 22.9 µM	16						CN(C(=O)Nc1c[nH]c2ccccc12)c1ccccc1 [VIS544 (17)]	
	binders	37.5 ± 11.5 µM	18						O=C1Nc2ccccc2/C1=C/C(=O)c1ccccc1 [VIS540 (16)]	cytotoxic
	binders	80.7 ± 10.6 µM	15	1.9	5.7				NC(=O)C1CCN(c2ccc3cccc(O)c3n2)CC1 [VIS580 (20)]	
	false positive hit compound								NC(=O)Cn1c(/C=C/c2ccccc2)nc2ccccc21 [VIS539]	
					6.7		3.2		OC(CC1c2ccccc2-c2cncn21)C1CCCCC1 (stereo not drawn) [compound 10, NLG919 analogue, reference compound]	
	binders	4.83 ± 0.61 µM	19					weak inhibitor	O=C(NC1CCC(F)(F)CC1)c1ccc2cc[nH]c2c1 [VIS557 (18)]	
	binders	51.9 ± 18.4 µM	16	2.1	8.1				O=C(Nc1nnc(-c2ccc(Cl)cc2)o1)C1CC1 [VIS572 (19)]	

Structure (SMILES)	FC L-Kyn (fold change of L-Kyn production) (murine IDO1)	Single-point MST classification [1]	Kd [2]	BEI (binding efficiency index) [2]	logP [3]	exppKa [4]	exppKa (second value) ([4]; Sirius T3, value printed after the slash)	explogP ([3]; n-octanol/water)	Inhibition in P1.HTR cells (in words) (murine IDO1; 30 µM)	Cytotoxicity (P1.HTR cells)
O=C(/C=C/c1ccco1)c1ccc(O)cc1 [VIS574 (22)]			37 ± 16.8 µM	21	2.6	7.8				

From article PMC8999677, “Critical Assessment of a Structure-Based Screening Campaign for IDO1 Inhibitors: Tips and Pitfalls” (International Journal of Molecular Sciences, 2022)
